Legend:
I-adrenerigic receptors = assay: interaction with I-adrenergic receptors; type: binding
[1] = system: muscarinic cholinergic receptors; assay: interaction with muscarinic cholinergic receptors; type: binding
[2] = in vivo; cited from earlier work

CCOc1ccccc1OC(c1ccccc1)C1CNCCO1 (stereo not shown) [Reboxetine]
interaction with I-adrenerigic receptors (I-adrenerigic receptors): without showing any appreciable interaction | dopamine uptake inhibitory activity (dopamine uptake): no dopamine uptake inhibitory activity | interaction with muscarinic cholinergic receptors [1]: without showing any appreciable interaction | monoamine oxidase (MAO) inhibitory activity (monoamine oxidase (MAO)): devoid of monoamine oxidase (MAO) inhibitory activity | serotonin uptake inhibitory activity (serotonin uptake): only marginal | effect in the 8-OH-DPAT hypothermia test [2]: ineffective | norepinephrine uptake inhibitory activity (norepinephrine uptake): highly selective norepinephrine uptake inhibitor

Reference: patent US6586427B2, “Treatments for nervous disorders” (Pharmacia & Upjohn Company, priority 1998, dated 2003)
